# From US8486885B2, “β-arrestin effectors and compositions and methods of use thereof” (Trevena, Inc., priority 2008, dated 2013)
# pEC50: −log10 of the molar value. Non-standard residues stand in square brackets, D forms with d. Residues, ends and D or L forms follow the SMILES beside them. Sar = CNCC(=O)O
# Columns and labels:
# Type in all cases: cell-based
# [1] = target: human angiotensin 2 type 1 receptor (human AT1R) (Homo sapiens, UniProt P30556); test: PathHunter β-arrestin-2 recruitment assay, human AT1R; settings: PathHunter β-arrestin HEK293 cells; for pEC50: read-out: human AT1R b-arrestin2 EC50
# Protocol: (§1) The proximal event in β-arrestin function mediated by GPCRs is recruitment to receptors following ligand binding and receptor phosphorylation by GRK's. Thus, the measure of β-arrestin recruitment was used to determine ligand efficacy for β-arrestin function.
# (§2) B-arrestin-2 recruitment to the human and rat angiotensin 2 type 1 receptor (human AT1R and rat AT1aR, respectively) was measured with the PathHunter™ β-arrestin assay (DiscoveRx Corporation, Fremont Calif.). Cells, plasmid(s), and detection reagent(s) were purchased from DiscoveRx, and assays were performed per manufacturer's instructions. Human AT1R and rat AT1aR were cloned into the pCMV-ProLink vector, verified by sequencing, and transfected into PathHunter β-arrestin HEK293 cells. Stably transfected clonal cell lines were selected with Hygromycin and G418. These clonal cell lines were used for all experiments.
# (§3) For assays, 25,000 cells were seeded per well in 96-well microplates in volumes of 90 μL and allowed to grow overnight at 37° C. in 5% CO2. Peptides of the invention were dissolved in deionized water to a concentration of 1 mM. Peptides were then further diluted in assay buffer (Hank's balanced salt solution with 20 mM HEPES) to add peptide to the cells to reach final concentrations ranging from 10 μM to 1 pM. Cells were then incubated for 60 minutes at 37° C. in 5% CO2, followed by addition of 50 μL of PathHunter Detection Reagent to each well. The microplates were then incubated at room temperature for 60 minutes, and then luminescence was measured using a NOVOstar microplate reader purchased from BMG Labtech. B-arrestin-2 recruitment to receptors was measured as relative luminescence intensity expressed in arbitrary units.
# Target sequence in this assay (P32121 whole entry partner, one chain of several): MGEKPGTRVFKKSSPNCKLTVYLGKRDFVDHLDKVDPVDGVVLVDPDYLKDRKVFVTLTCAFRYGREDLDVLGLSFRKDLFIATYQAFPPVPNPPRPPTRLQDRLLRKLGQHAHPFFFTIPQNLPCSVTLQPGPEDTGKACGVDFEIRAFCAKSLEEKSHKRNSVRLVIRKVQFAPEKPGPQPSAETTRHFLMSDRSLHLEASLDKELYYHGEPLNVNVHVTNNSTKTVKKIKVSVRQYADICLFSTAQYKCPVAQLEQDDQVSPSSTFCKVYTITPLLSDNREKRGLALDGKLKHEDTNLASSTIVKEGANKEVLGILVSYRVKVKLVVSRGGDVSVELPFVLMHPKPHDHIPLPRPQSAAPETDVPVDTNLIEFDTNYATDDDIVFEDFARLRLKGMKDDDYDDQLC
# [2] = target: rat angiotensin 2 type 1 receptor (rat AT1aR) (Rattus norvegicus, UniProt P25095); test: PathHunter β-arrestin-2 recruitment assay, rat AT1aR; settings: PathHunter β-arrestin HEK293 cells; for pEC50: read-out: rat AT1aR b-arrestin2 EC50
# Protocol: as §1, §2, §3
# Target sequence in this assay (P32121 whole entry partner, one chain of several): as above
# [3] = target: T1, human angiotensin 2 type 1 receptor (human AT1R) (Homo sapiens, UniProt P30556); test: IP1 accumulation assay (IP-One Tb), human AT1R; settings: cells expressing human AT1R
# T1 construct: expressed in transfected cells
# T1 sequence (P30556 1-359): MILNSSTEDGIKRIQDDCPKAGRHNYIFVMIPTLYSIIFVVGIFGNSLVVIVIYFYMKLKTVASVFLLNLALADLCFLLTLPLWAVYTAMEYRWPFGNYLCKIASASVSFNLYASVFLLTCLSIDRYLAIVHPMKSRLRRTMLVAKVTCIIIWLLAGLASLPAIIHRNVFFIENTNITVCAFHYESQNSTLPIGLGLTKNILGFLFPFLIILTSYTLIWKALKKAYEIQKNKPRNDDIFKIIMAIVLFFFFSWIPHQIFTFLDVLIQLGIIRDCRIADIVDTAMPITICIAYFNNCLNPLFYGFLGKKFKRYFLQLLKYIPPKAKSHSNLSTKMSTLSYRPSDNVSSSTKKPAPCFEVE
# Protocol: (§4) A secondary measure of G protein coupling efficacy was also performed. IP3 is generated by activation of phospholipase C by Gα-q. IP3 is degraded to IP1, which can be forced to accumulate in cells by blocking degradation with lithium chloride. Thus we measured accumulation of IP1 to determine ligand efficacy for G protein activation.
# (§5) IP1 accumulation generated by human and rat angiotensin 2 type 1 receptor (human AT1R and rat AT1aR, respectively) was measured with IP-One Tb kits purchased from Cisbio and used per the manufacturer's instructions. Clonal stably transfected cell lines expressing human AT1TR or rat AT1aR were used for all experiments.
# (§6) For assays, 4,000 cells were seeded per well in 384-well small-volume microplates in volumes of 20 uL and allowed to grow overnight at 37° C. in 5% CO2. Cell growth media was then replaced with stimulation buffer supplied by Cisbio containing 50 mM lithium chloride. Peptides TRV-120,001 through TRV-120,035 were dissolved in deionized water to a concentration of 1 mM. For agonist detection, peptides were then further diluted in stimulation buffer to add peptide to the cells to reach final concentrations ranging from 10 uM to 1 pM. […] Following addition of peptides, cells were incubated at 37° C. in 5% CO2 for 30 minutes and then lysed with detection reagents added per manufacturer's instructions.
# [4] = target: T2, rat angiotensin 2 type 1 receptor (rat AT1aR) (Rattus norvegicus, UniProt P25095); test: IP1 accumulation assay (IP-One Tb), rat AT1aR; settings: cells expressing rat AT1aR
# T2 construct: expressed in transfected cells
# T2 sequence (P25095 1-359): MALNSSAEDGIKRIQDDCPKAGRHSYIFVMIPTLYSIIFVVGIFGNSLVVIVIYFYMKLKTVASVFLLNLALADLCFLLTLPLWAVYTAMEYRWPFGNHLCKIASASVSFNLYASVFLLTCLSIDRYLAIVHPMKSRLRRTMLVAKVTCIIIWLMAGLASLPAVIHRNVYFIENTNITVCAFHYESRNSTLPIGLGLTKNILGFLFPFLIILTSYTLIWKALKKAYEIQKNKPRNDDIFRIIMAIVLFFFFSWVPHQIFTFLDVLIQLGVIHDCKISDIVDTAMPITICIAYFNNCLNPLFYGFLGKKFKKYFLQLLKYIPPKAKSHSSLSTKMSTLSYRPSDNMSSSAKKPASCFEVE
# Protocol: as §4, §5, §6
Structure (SMILES),human AT1R b-arrestin2 Max (%) [1],rat AT1aR b-arrestin2 Max (%) [2],pEC50 [2],human AT1R IP One EC50 (M) [3],rat AT1aR IP One EC50 (M) [4],pEC50 [1],human AT1R IP One Max (%) [3],rat AT1aR IP One Max (%) [4],pEC50 [4]
"CNCC(=O)N[C@@H](CCCNC(=N)N)C(=O)N[C@H](C(=O)N[C@@H](Cc1ccc(O)cc1)C(=O)N[C@@H](CCC(=O)O)C(=O)N[C@@H](Cc1c[nH]cn1)C(=O)N1CCC[C@H]1C(N)=O)C(C)C [SEQ ID NO:40, Sar-Arg-Val-Tyr-Glu-His-Pro-NH2] (H-[Sar]RVYEHP-NH2; N-terminus assumed)",53.2%,87.9%,7.51,inactive,Inactive,,,,
"CC[C@H](C)[C@H](NC(=O)[C@H](Cc1ccc(O)cc1)NC(=O)[C@@H](NC(=O)[C@H](CCCNC(=N)N)NC(=O)CNC)C(C)C)C(=O)N[C@@H](CCCCN)C(=O)N1CCC[C@H]1C(=O)N[C@H](C)C(=O)O [SEQ ID NO:50, Sar-Arg-Val-Tyr-Ile-Lys-Pro-D-Ala-OH] (H-[Sar]RVYIKP[dA]-OH; N-terminus assumed)",56.8%,85.6%,6.57,inactive,Inactive,6.17,,,
"CNCC(=O)N[C@@H](CCCNC(=N)N)C(=O)N[C@H](C(=O)N[C@@H](Cc1ccc(O)cc1)C(=O)N[C@H](C)C(=O)N[C@@H](Cc1c[nH]cn1)C(=O)N1CCC[C@H]1C(N)=O)C(C)C [SEQ ID NO:53, Sar-Arg-Val-Tyr-D-Ala-His-Pro-NH2]",33.6%,12.2%,,inactive,Inactive,5.80,,,
"CNCC(=O)N[C@@H](CCCNC(=N)N)C(=O)N[C@H](C(=O)N[C@@H](Cc1ccc(O)cc1)C(=O)N[C@@H](Cc1c[nH]cn1)C(=O)N[C@@H](Cc1c[nH]cn1)C(=O)N1CCC[C@H]1C(N)=O)C(C)C [SEQ ID NO:42, Sar-Arg-Val-Tyr-His-His-Pro-NH2] (H-[Sar]RVYHHP-NH2; N-terminus assumed)",46.4%,74.9%,6.57,inactive,Inactive,6.20,,,
CC[C@H](C)[C@H](NC(=O)[C@H](Cc1ccc(O)cc1)NC(=O)[C@@H](NC(=O)[C@H](CCCNC(=N)N)NC(=O)[C@@H](N)CC(=O)O)C(C)C)C(=O)N[C@@H](Cc1c[nH]cn1)C(=O)N1CCC[C@H]1C(=O)NCC(=O)O [SEQ ID NO:56] (H-DRVYIHPG-OH; N-terminus assumed),104.4%,98.5%,6.80,,,,96.5%,98.4%,
"CC[C@H](C)[C@H](NC(=O)[C@H](Cc1ccc(O)cc1)NC(=O)[C@@H](NC(=O)[C@H](CCCNC(=N)N)NC(=O)CNC)C(C)C)C(=O)N[C@@H](Cc1c[nH]cn1)C(=O)N1CCC[C@@H]1C(N)=O [SEQ ID NO:51, Sar-Arg-Val-Tyr-Ile-His-D-Pro-NH2]",20.2%,5.8%,,inactive,Inactive,6.48,,,
"CNCC(=O)N[C@@H](CCCNC(=N)N)C(=O)N[C@H](C(=O)N[C@@H](Cc1ccc(O)cc1)C(=O)N[C@H](C(=O)N[C@@H](Cc1c[nH]cn1)C(N)=O)C(C)C)C(C)C [SEQ ID NO:55, Sar-Arg-Val-Tyr-Val-His-NH2] (H-[Sar]RVYVH-NH2; N-terminus assumed)",92.7%,95.6%,,,,,97.6%,98.8%,8.17
"CNCC(=O)N[C@@H](CCCNC(=N)N)C(=O)N[C@H](C(=O)N[C@@H](Cc1ccc(O)cc1)C(=O)N[C@@H](Cc1ccccc1)C(=O)N[C@@H](Cc1c[nH]cn1)C(=O)N1CCC[C@H]1C(N)=O)C(C)C [SEQ ID NO:41, Sar-Arg-Val-Tyr-Phe-His-Pro-NH2]",30.1%,53.1%,,inactive,Inactive,5.80,,,
CC[C@H](C)[C@H](NC(=O)[C@H](Cc1ccc(O)cc1)NC(=O)[C@@H](NC(=O)[C@H](CCCNC(=N)N)NC(=O)[C@@H](C)NC)C(C)C)C(=O)N[C@@H](Cc1c[nH]cn1)C(=O)N1CCC[C@H]1C(=O)N[C@@H](C)C(=O)O [SEQ ID NO:47],80.5%,72.2%,5.68,,Inactive,,,,
"CNCC(=O)N[C@@H](CCCNC(=N)N)C(=O)N[C@H](C(=O)N[C@@H](Cc1ccc(O)cc1)C(=O)N[C@H](C(=O)N[C@@H](Cc1c[nH]cn1)C(=O)N1CCC[C@H]1C(=O)O)C(C)C)C(C)C [SEQ ID NO:54, Sar-Arg-Val-Tyr-Val-His-Pro-OH]",58.6%,83.0%,,inactive,Inactive,,,,
"CNCC(=O)N[C@@H](CCCNC(=N)N)C(=O)N[C@H](C(=O)N[C@@H](Cc1ccc(O)cc1)C(=O)N[C@@H](Cc1ccc(O)cc1)C(=O)N[C@@H](Cc1c[nH]cn1)C(=O)N1CCC[C@H]1C(=O)O)C(C)C [SEQ ID NO:52, Sar-Arg-Val-Tyr-Tyr-His-Pro-OH]",45.9%,83.8%,,inactive,,5.85,,8.0%,
"CNCC(=O)N[C@@H](CCCNC(=N)N)C(=O)N[C@H](C(=O)N[C@@H](Cc1ccc(O)cc1)C(=O)N[C@@H](CCCCN)C(=O)N[C@@H](Cc1c[nH]cn1)C(=O)N1CCC[C@H]1C(N)=O)C(C)C [SEQ ID NO:43, Sar-Arg-Val-Tyr-Lys-His-Pro-NH2] (H-[Sar]RVYKHP-NH2)",42.7%,64.8%,,inactive,,,,17.9%,6.59
